Source: ChEMBL document CHEMBL5727392, “2,4-disubstituted pyrimidines as CDK inhibitors” (2019)
pIC50: −log10 of the molar value.

Target: Cyclin-dependent kinase 4 (Homo sapiens, UniProt P11802)
Experiment: Caliper Mobility Shift Assay: CDK4: The test compound was dissolved in DMSO and diluted with a kinase buffer solution (20 mM HEPES-pH 7.5, 0.01% Triton X-100, 10 mM MgCl2, 2 mM DTT) and 5 μL of compound at 5-fold final concentration of reaction dissolved in 10% DMSO was added in a 384-well plate. The compound-free control well was 5 μL of 10% DMSO, and the no-activity control well was 5 μL of kinase buffer. 10 μL of a 2.5-fold diluted CDK4 enzyme solution (GST-CDK4(1-303 end)) was added and incubated at room temperature for 10 min, and then 10 μL of the 2.5-fold diluted substrate solution Peptide FAM-P8 was added. The reaction was stopped by adding 25 μL of stop solution after incubation at 28° C. for 3 h, and the conversion rate data was read on a Caliper EZ Reader II (Caliper Life Sciences) and the conversion rate was converted to inhibition rate data according to above method.

Chain of Cyclin-dependent kinase 4 (P11802 whole entry): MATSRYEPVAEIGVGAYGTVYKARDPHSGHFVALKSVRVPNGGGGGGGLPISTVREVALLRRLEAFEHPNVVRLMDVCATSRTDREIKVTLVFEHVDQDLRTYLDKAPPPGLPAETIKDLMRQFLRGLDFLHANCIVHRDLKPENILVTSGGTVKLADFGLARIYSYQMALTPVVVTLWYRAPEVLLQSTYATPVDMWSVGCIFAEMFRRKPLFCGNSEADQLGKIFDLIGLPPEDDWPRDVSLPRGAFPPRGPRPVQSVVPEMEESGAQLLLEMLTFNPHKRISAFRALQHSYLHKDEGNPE

pIC50 | Structure (SMILES)
> 7.70 | CC(C)c1c2ccc(-c3nc(Nc4ccc(N5CCNCC5)cn4)ncc3F)c(Cl)c2nn1C
> 7.70 | CC(C)c1c(C#N)n(C2CC2)c2ccc(-c3nc(Nc4ccc(CN5CCN(C6CC6)CC5)cn4)ncc3F)cc12
